The data set is described as follows: Pharmacokinetic determination in mice (PO 5 mg/kg, IV 1 mg/kg). The data set is classed as in vivo, C57BL/6J mice. As to conditions: male, C57BL/6J, mouse, plasma, C57 mice, PO administration, 5 mpk; for AUC(0-inf): read-out: Area under the curve AUC0-∞; for half-life: read-out: Half-life t1/2 (converted); for MRT: read-out: Mean residence time MRT; for Cmax: read-out: Plasma concentration Cmax; for Tmax: read-out: Time to peak tmax. Summed up:
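Fasted male C57BL/6J mice (n=3 per route) dosed PO 5 mg/kg in 10% Solutol HS15 or IV 1 mg/kg in 5% DMSO/10% Solutol HS15/85% PBS. Orbital blood sampled 0.083 (IV) to 24 h; plasma measured by LC-MS/MS, parameters by WinNonlin.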

The results in this text go back to US12612403B2, “Nitrogen-containing heterocyclic derivative inhibitor, and preparation method therefor and use thereof” (SHANGHAI HANSOH BIOMEDICAL CO., LTD., priority 2024, dated 2026).

The term MRT denotes the average time that molecules of a dose stay in the body. By Tmax is commonly meant the time from dosing to the highest level.

Regarding `O=c1nc(O)ccn1-c1ccc(N[C@H]2CC[C@H](Nc3nc4cc(C(F)(F)F)ccn4n3)C2)nc1` [Example 78, 4-hydroxy-1-(6-(((1S,3S)-3-((7-(trifluoromethyl)-[1,2,4]triazolo[1,5-a]pyridin-2-yl)amino)cyclopentyl)amino)pyridin-3-yl)pyrimidin-2(1H)-one], the AUC(0-inf) is 14000 ng·h/mL, the half-life was 3.6 h, the mean residence time (MRT) was 1.7 h and the Cmax turned out to be 7860 ng/mL. Also, the time to peak (Tmax) came out at 0.25 h.
As to `O=C1c2ncccc2CN1c1cnc(N[C@H]2CC[C@H](Nc3nc4cc(OC(F)F)ccn4n3)C2)c(F)c1` [Example 151], the AUC(0-inf) was found to be 11300 ng·h/mL, the half-life is 1.4 h, the mean residence time (MRT) was determined as 2.3 h and the Cmax turned out to be 3460 ng/mL. For the same molecule, the Tmax amounted to 0.5 h.
For `O=c1nc(O)ccn1-c1cnc(N[C@H]2CC[C@H](Nc3nc4cc(C(F)(F)F)ccn4n3)C2)c(F)c1` [Example 183] the same measures were 26700 ng·h/mL, 3 h, 3.5 h, 6130 ng/mL and 0.7 h.
